From US20180141913A1 (EISAI R & D MANAGEMENT CO., LTD., priority 2016, published 2018)
Like-named read-outs stand apart in the source and are kept apart here.

How the values were obtained:
[1] = system: MCF7-WT cells (MCF7 ER-alpha wildtype); assay: In vitro proliferation (viability) assay, MCF7-WT cells; type: cell-based; settings: Homo sapiens
Experimental: (§1) MCF7 BUS cells (Coser, et al., (2003) PNAS 100(24): 13994-13999) were maintained in Dulbecco's Modified Eagle Medium supplemented with 10% FBS, 4 mM L-glutamine and 1× non-essential amino acids. Lenti-X 293T cells (Clontech, Cat #632180) were routinely cultured in Dulbecco's Modified Eagle Medium supplemented with 10% FBS.
(§2) The QuikChange II XL Site-Directed Mutagenesis Kit (Agilent Technologies, Cat #200523) was used to generate Y537S, Y537C, Y537N and D538G mutations within the ERα exon 8. Wild-type ESR1 cDNA (GeneCopoeia Inc., Cat# GC-A0322, accession no. NM 000125) was used as a template with the following mutagenesis primers (where the underlined nucleotides represent site mutations); Y537S: F-AAGAACGTGGTGCCCCTCTCTGACCTGCTGCTGGAGATG (SEQ ID NO: 1), R-CATCTCCAGCAGCAGGTCAGAGAGGGGCACCACGTTCTT (SEQ ID NO: 2); Y537N: F-AAGAACGTGGTGCCCCTCAATGACCTGCTGCTGGAGATG (SEQ ID NO: 3), R-CATCTCCAGCAGCAGGTCATTGAGGGGCACCACGTTCTT (SEQ ID NO: 4); Y537C: F-AAGAACGTGGTGCCCCTCTGTGACCTGCTGCTGGAGATG (SEQ ID NO: 5), R-CATCTCCAGCAGCAGGTCACAGAGGGGCACCACGTTCTT (SEQ ID NO: 6); D538G: F-AACGTGGTGCCCCTCTATGGCCTGCTGCTGGAGATGCTG (SEQ ID NO: 7), R-CAGCATCTCCAGCAGCAGGCCATAGAGGGGCACCACGTT (SEQ ID NO: 8). WT and mutant ESR1 cDNAs were cloned into the designation lentiviral vector pLenti6.3/V5-Dest (Invitrogen, Cat #V533-06). To make lentivirus, DNAs (WT and mutant ESR1) were co-transfected with packaging plasmids into Lenti-X 293T cells using TransIT (Mirus, Cat #MIR 2700). 48 h post-transfection, virus containing media was filtered and added to MCF7 cells in the presence of 8 µg/ml polybrene overnight. Two days following infection, cells were placed under selection with 10 µg/ml blasticidin for 2 weeks for stable expression.
(§3) MCF7-WT and -Y537S cells were seeded at 1500 cells/well in black-walled 96-well plates (assay plates, Costar, Cat #3904). In parallel, cells were also seeded in a separate 96-well plate (8 wells/cell line, control plate) for which a CTG (CellTiter-Glo® Luminescent Viability Assay, Promega, Cat #G7572) was measured the following day (day 0 reading). The day 0 reading was used for the GI50 calculation at the termination of the experiment. The day following seeding, compounds were added to assay plates. Briefly, a 1:4 serial dilution was prepared in DMSO at 200× final concentration for a total of 10 concentrations (9 dilutions containing compound and one is DMSO only). Serially diluted compounds were pipetted into medium to prepare a compound-medium mix at 10× final concentration. 10 μl of compound-medium mix was added to MCF7-WT and -Y537S cells at 3 wells/concentration (triplicate for each concentration). On day 3, media/compound was removed and replaced with fresh media/compound as described above. On day 6, CTG was measured and compared to day 0 readings from control plate to assess GI50.

[2] = system: MCF7-Y537S cells (MCF7 ER-alpha Y537S mutant); assay: In vitro proliferation (viability) assay, MCF7-Y537S cells; type: cell-based; settings: Homo sapiens
Experimental: as §1, §2, §3

[3] = MCF7, CellTiter-Glo, day 6 vs day 0, average ± standard deviation, free base and/or salt forms, read-out: MCF7 WT GI50
[4] = MCF7, CellTiter-Glo, day 6 vs day 0, average ± standard deviation, free base and/or salt forms, read-out: MCF7 Y537S GI50
[5] = MCF7, read-out: MCF7 WT GI50 (nM)
[6] = MCF7, read-out: MCF7 Y537S GI50 (nM)

SMILES	GI50 [1, 3]	GI50 [2, 4]	GI50 [1, 5]	GI50 [2, 6]
CC/C(=C(/c1ccc(OCCNCCCC(=O)N(C)C)cc1)c1ccc2[nH]ncc2c1)c1ccccc1 [Compound 4, (E)-4-(2-(4-(1-(1H-indazol-5-yl)-2-phenylbut-1-enyl)phenoxy)ethylamino)-N,N-dimethylbutanamide]	4.09 ± 2.74 nM	46.4 ± 23.2 nM		
CNC(=O)/C=C/CNCCOc1ccc(/C(=C(\c2ccccc2)C2CCC2)c2ccc3[nH]ncc3c2)cc1 [Compound 11, (E)-4-((2-(4-((E)-2-cyclobutyl-1-(1H-indazol-5-yl)-2-phenylvinyl)phenoxy)ethyl)amino)-N-methylbut-2-enamide]	2.08 ± 1.55 nM	32.7 ± 22.2 nM		
O=C1CCCN1CCOc1ccc(/C(=C(/CC(F)(F)F)c2ccccc2)c2ccc3[nH]nc(F)c3c2)cn1 [Compound 12, (Z)-1-(2-((5-(4,4,4-trifluoro-1-(3-fluoro-1H-indazol-5-yl)-2-phenylbut-1-en-1-yl)pyridin-2-yl)oxy)ethyl)pyrrolidin-2-one]	1.45 nM	24 nM		
O=C(/C=C/CNCCOc1ccc(/C(=C(/CC(F)(F)F)c2ccccc2)c2ccc3[nH]ncc3c2)cn1)N1CCOCC1 [Compound 19, (E)-1-morpholino-4-((2-((5-((Z)-4,4,4-trifluoro-1-(1H-indazol-5-yl)-2-phenylbut-1-en-yl)pyridin-2-yl)oxy)ethyl)amino)but-2-en-1-one]	0.66 ± 0.05 nM	3.15 ± 0.01 nM		
COCCNC(=O)/C=C/CNCCOc1ccc(/C(=C(/CC(F)(F)F)c2ccccc2)c2ccc3[nH]nc(F)c3c2)cn1 [Compound 20, (E)-N-(2-methoxyethyl)-4-((2-((5-((Z)-4,4,4-trifluoro-1-(3-fluoro-1H-indazol-5-yl)-2-phenylbut-1-en-1-yl)pyridin-2-yl)oxy)ethyl)amino)but-2-enamide]	0.66 ± 0.13 nM	6.08 ± 2.69 nM		
Cl.[2H]C([2H])([2H])N(C(=O)/C=C/CNCCOc1ccc(/C(=C(/CC(F)(F)F)c2ccccc2)c2ccc3[nH]nc(F)c3c2)cn1)C([2H])([2H])[2H] [Compound 24, (E)-N,N-di(^2H3)methyl-4-((2-((5-((Z)-4,4,4-trifluoro-1-(3-fluoro-1H-indazol-5-yl)-2-phenylbut-1-en-1-yl)pyridin-2-yl)oxy)ethyl)amino)but-2-enamide]			0.45 ± 0.11 nM	3.34 ± 1.14 nM
Cl.[2H]C([2H])([2H])N(C(=O)/C=C/CNCCOc1ccc(/C(=C(/CC(F)(F)F)c2ccccc2)c2ccc3[nH]ncc3c2)cn1)C([2H])([2H])[2H] [Compound 25, (E)-N,N-di(H3)methyl-4-((2-((5-((Z)-4,4,4-trifluoro-1-(1H-indazol-5-yl)-2-phenylbut-1-en-1-yl)pyridin-2-yl)oxy)ethyl)amino)but-2-enamide]	0.38 ± 0.16 nM	1.58 ± 0.23 nM		
CC/C(=C(/c1ccc(OCCNC/C=C/C(=O)NC)nc1)c1ccc2[nH]ncc2c1)c1ccccc1 [Compound 28, (E)-4-((2-((5-((Z)-1-(1H-indazol-5-yl)-2-phenylbut-1-en-1-yl)pyridin-2-yl)oxy)ethyl)amino)-N-methylbut-2-enamide]	4.12 ± 1.6 nM	9.08 ± 5.26 nM		
O=C(/C=C/CNCCOc1ccc(/C(=C(\c2ccccc2)C2CCC2)c2ccc3[nH]ncc3c2)cc1)N1CCCC1 [Compound 35]	3.06 ± 0.25 nM	27.3 ± 19.9 nM		
O=C(CCCNCCOc1ccc(/C(=C(/CC(F)(F)F)c2ccccc2)c2ccc3[nH]nc(F)c3c2)cn1)N1CCCC1 [Compound 43]			0.15 nM	3.21 nM
CNC(=O)/C=C/CNCCOc1ncc(/C(=C(/CC(F)(F)F)c2ccccc2)c2ccc3[nH]nc(F)c3c2)cn1 [Compound 45, (E)-N-methyl-4-((2-((5-((Z)-4,4,4,4-trifluoro-1-(3-fluoro-1H-indazol-5-yl)-2-phenylbut-1-en-1-yl)pyrimidin-2-yl)oxy)ethyl)amino)but-2-enamide]	23.2 ± 9.42 nM	71 ± 8.63 nM		
CNC(=O)/C=C/CNCCOc1ccc(/C(=C(/CC(F)(F)F)c2ccc(F)cc2Cl)c2ccc3[nH]ncc3c2)cc1 [Compound 46, (E)-4-((2-(4-((E)-2-(2-chloro-4-fluorophenyl)-4,4,4-trifluoro-1-(1H-indazol-5-yl)but-1-en-1-yl)phenoxy)ethyl)amino)-N-methylbut-2-enamide]	1.38 ± 0.44 nM	13.8 ± 5.1 nM		
CNC(=O)/C=C/CNCCOc1ccc(/C(=C(/CC(F)(F)F)c2ccc(F)cc2Cl)c2ccc3[nH]nc(F)c3c2)cc1 [Compound 47, (E)-4-((2-(4-((E)-2-(2-chloro-4-fluorophenyl)-4,4,4-trifluoro-1-(3-fluoro-1H-indazol-5-yl)but-1-en-1-yl)phenoxy)ethyl)amino)-N-methylbut-2-enamide]	0.64 ± 0.4 nM	7.25 ± 8.77 nM		

Second part, led by results:

GI50 [1, 3]	GI50 [2, 4]	SMILES	GI50 [1, 5]	GI50 [2, 6]
0.36 ± 0.16 nM	3.79 ± 1.92 nM	CN(C)C(=O)CCCNCCOc1ccc(/C(=C(/CC(F)(F)F)c2ccccc2)c2ccc3[nH]nc(F)c3c2)cc1 [Compound 1, (E)-N,N-dimethyl-4-((2-(4-(4,4,4-trifluoro-1-(3-fluoro-1H-indazol-5-yl)-2-phenylbut-1-en-1-yl)phenoxy)ethyl)amino)butanamide]		
88.5 ± 42.7 nM	180 ± 227 nM	CNC(=O)/C=C/CNCCOc1ccc(/C(CC(F)(F)F)=C(\c2ccccc2)c2ccc3[nH]nc(F)c3c2)cn1 [Compound 5, (E)-N-methyl-4-((2-((5-((E)-4,4,4-trifluoro-1-(3-fluoro-1H-indazol-5-yl)-1-phenylbut-1-en-2-yl)pyridin-2-yl)oxy)ethyl)amino)but-2-enamide]		
0.38 nM	5.5 ± 0.47 nM	CNC(=O)/C=C/CCNCCOc1ccc(/C(=C(/CC(F)(F)F)c2ccccc2)c2ccc3[nH]nc(F)c3c2)cn1 [Compound 6, (E)-N-methyl-5-((2-((5-((Z)-4,4,4-trifluoro-1-(3-fluoro-1H-indazol-5-yl)-2-phenylbut-1-en-1-yl)pyridin-2-yl)oxy)ethyl)amino)pent-2-enamide]		
0.7 ± 0.27 nM	14.7 ± 0.55 nM	CNC(=O)CCCCNCCOc1ccc(/C(=C(/CC(F)(F)F)c2ccccc2)c2ccc3[nH]nc(F)c3c2)cn1 [Compound 8, (Z)-N-methyl-5-((2-((5-(4,4,4-trifluoro-1-(3-fluoro-1H-indazol-5-yl)-2-phenylbut-1-en-1-yl)pyridin-2-yl)oxy)ethyl)amino)pentanamide]		
1.73 ± 0.14 nM	7.65 ± 3.38 nM	O=C(/C=C/CNCCOc1ccc(/C(=C(/CC(F)(F)F)c2ccccc2)c2ccc3[nH]ncc3c2)cc1)N1CCCC1 [Compound 14, (E)-1-(pyrrolidin-1-yl)-4-((2-(4-((E)-4,4,4-trifluoro-1-(1H-indazol-5-yl)-2-phenylbut-1-en-1-yl)phenoxy)ethyl)amino)but-2-en-1-one]		
0.72 ± 0.24 nM	4.91 ± 0.65 nM	O=C(/C=C/CNCCOc1ccc(/C(=C(/CC(F)(F)F)c2ccccc2)c2ccc3[nH]nc(F)c3c2)cn1)N1CCOCC1 [Compound 18, (E)-1-morpholino-4-(2-(5-((Z)-4,4,4-trifluoro-1-(3-fluoro-1H-indazol-5-yl)-2-phenylbut-1-enyl)pyridin-2-yloxy)ethylamino)but-2-en-1-one]		
0.24 ± 0.04 nM	9.38 ± 7.61 nM	O=C(CCCNCCOc1ccc(/C(=C(/CC(F)(F)F)c2ccccc2)c2ccc3[nH]nc(F)c3c2)cc1)N1CCCC1 [Compound 41, (E)-1-(pyrrolidin-1-yl)-4-((2-(4-(4,4,4-trifluoro-1-(3-fluoro-1H-indazol-5-yl)-2-phenylbut-1-en-1-yl)phenoxy)ethyl)amino)butan-1-one]		
